Test results reported in publication PMC6844396, “Design, synthesis and biological evaluation of novel 1H-1,2,4-triazole, benzothiazole and indazole-based derivatives as potent FGFR1 inhibitors viafragment-based virtual screening” (Journal of Enzyme Inhibition and Medicinal Chemistry, 2019).

Experiments:
[1] = tested on: SNU-16 cell; experiment: Cell proliferation assay (CCK-8 or MTT), SNU-16; format: cell-based, Human; details: for IC50: SNU-16 is FGFR2-amplified cell type, 72 h
Method: Human gastric cancer cell line SNU-16 was purchased from American Type Culture Collection (ATCC, Manssas, VA, USA). All the cell lines were routinely maintained in complete medium according to the suppliers’ recommendations.
Cells were seeded in 96-well tissue culture plates. On the day when seeding, the cells were exposed to various concentrations of compounds and further cultured for 72 h at 37 °C. Finally, cell proliferation was determined using Cell Counting Kit (CCK-8) or the thiazolyl blue tetrazolium bromide (MTT, from Sigma-Aldrich, St. Louis, MO, USA) assay. The IC50 values were calculated by concentration–response curve fitting using a SoftMax pro-based four-parameter method.

[2] = biological target: FGFR1 (Homo sapiens, UniProt P11362); experiment: ELISA kinase assay, FGFR1; format: biochemical; details: ELISA; average values from two separate experiments
Method: Elisa kinase assay. The effects of the indicated compounds on the activities of receptor tyrosine kinases were determined using enzyme-linked immunosorbent assays (ELISAs) with purified recombinant proteins. Briefly, 20 μg/mL poly (Glu,Tyr)4:1 (Sigma, St Louis, MO, USA) was pre-coated in 96-well plates as a substrate. A 50 μL aliquot of 10 μmol/L ATP solution diluted in kinase reaction buffer (50 mmol/L HEPES [pH 7.4], 50 mmol/L MgCl2, 0.5 mmol/L MnCl2, 0.2 mmol/L Na3VO4, and 1 mmol/L DTT) was added to each well; 1 μL of different compounds with indicated concentration diluted in 1% DMSO (v/v) (Sigma, St Louis, MO, USA) were then added to each reaction well. DMSO (1%, v/v) was used as the negative control. The kinase reaction was initiated by the addition of purified tyrosine kinase proteins (FGFR1, FGFR2, FGFR3, FGFR4, ALK, Bcr-Abl, EPH-A2, Flt-1, RET, c-Src, IGF1R, c-Met, EGFR, ErbB2) diluted in 49 μL of kinase reaction buffer solution. After incubation for 60 min at 37 °C, the plate was washed three times with phosphate-buffered saline (PBS) containing 0.1% Tween 20 (T-PBS). Anti-phosphotyrosine (PY99) antibody (100 μL; 1:500, diluted in 5 mg/mL BSA T-PBS) was then added. After a 30 min incubation at 37 °C, the plate was washed three times, and 100 μL horseradish peroxidase-conjugated goat anti-mouse IgG (1:2000, diluted in 5 mg/mL BSA T-PBS) was added. The plate was then incubated at 37 °C for 30 min and washed 3 times. A 100 μL aliquot of a solution containing 0.03% H2O2 and 2 mg/mL o-phenylenediamine in 0.1 mol/l citrate buffer (pH 5.5) was added. The reaction was terminated by the addition of 50 μL of 2 mol/l H2SO4 as the colour changed, and the plate was analysed using a multi-well spectrophotometer (SpectraMAX 190, Molecular Devices, Sunnyvale, CA, USA) at 490 nm. The inhibition rate (%) was calculated using the following equation: [1-(A490/A490 control)] × 100%. The IC50 values were calculated from the inhibition curves in two separate experiments.

FGFR1, sequence (P11362 22-822): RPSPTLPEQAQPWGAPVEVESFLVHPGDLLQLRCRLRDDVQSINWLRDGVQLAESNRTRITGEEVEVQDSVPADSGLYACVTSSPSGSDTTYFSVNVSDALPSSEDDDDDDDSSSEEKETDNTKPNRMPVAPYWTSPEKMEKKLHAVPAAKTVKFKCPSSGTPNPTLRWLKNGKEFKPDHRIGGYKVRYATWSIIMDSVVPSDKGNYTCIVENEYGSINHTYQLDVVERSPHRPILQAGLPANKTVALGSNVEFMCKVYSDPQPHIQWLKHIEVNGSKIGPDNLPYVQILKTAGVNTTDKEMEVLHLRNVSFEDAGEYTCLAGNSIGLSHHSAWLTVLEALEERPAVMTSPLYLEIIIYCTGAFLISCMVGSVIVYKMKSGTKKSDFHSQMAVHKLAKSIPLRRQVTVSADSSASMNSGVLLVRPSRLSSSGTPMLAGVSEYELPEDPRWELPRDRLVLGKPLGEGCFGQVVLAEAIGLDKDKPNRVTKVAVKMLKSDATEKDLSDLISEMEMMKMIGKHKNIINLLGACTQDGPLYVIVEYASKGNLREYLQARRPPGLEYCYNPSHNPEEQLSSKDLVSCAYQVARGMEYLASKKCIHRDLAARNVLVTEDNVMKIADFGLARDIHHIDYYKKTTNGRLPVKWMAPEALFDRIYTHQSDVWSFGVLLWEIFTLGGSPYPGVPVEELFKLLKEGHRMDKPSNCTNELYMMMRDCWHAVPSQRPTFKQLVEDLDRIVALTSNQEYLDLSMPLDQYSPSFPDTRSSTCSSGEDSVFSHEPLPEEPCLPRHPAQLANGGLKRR

IC50 ([1]; Homo sapiens, Table 1) | IC50 [2] | IC50 ([1]; Homo sapiens, Table 3) | melting point | IC50 ([1]; Homo sapiens, Table 2) | Molecule | enhancement of the cellular inhibition ([1]; 9o vs 9d, SNU-16) | IC50 ([1]; Table 1)
1200 nM | 30.6 nM |  |  |  | COc1cc(OC)cc(-c2ccc3c(NC(=O)c4ccc(N5C[C@@H](C)N[C@@H](C)C5)cc4)n[nH]c3c2)c1 [9a, N-(6–(3,5-dimethoxyphenyl)-1H-indazol-3-yl)-4-((3R,5S)-3,5-dimethylpiperazin-1-yl)benzamide] |  | 
 | > 1000 nM | > 5000 nM | 240.3 to 242.5 °C |  | COc1cc(F)cc(-c2ccc3c(NC(=O)c4ccc(CN5CCN(C)CC5)cc4)n[nH]c3c2)c1 [9x, N-(6–(3-fluoro-5-methoxyphenyl)-1H-indazol-3-yl)-4-((4-methylpiperazin-1-yl)methyl)benzamide] |  | 
 | 5.5 nM |  | 225.5 to 227 °C | 572 nM | CCN1CCN(c2ccc(C(=O)Nc3n[nH]c4cc(-c5cc(F)cc(OC)c5)ccc34)cc2)CC1 [9o, 4–(4-ethylpiperazin-1-yl)-N-(6–(3-fluoro-5-methoxyphenyl)-1H-indazol-3-yl)benzamide] | 1.4 fold | 
 | > 1000 nM |  |  |  | N-(5–(3-methoxyphenethyl)-1H-1,2,4-triazol-3-yl)-4–(4-methylpiperazin-1-yl) benzamide [18b] |  | > 5000 nM
 | 77.7 nM |  | 228.7 to 233.4 °C | 757 nM | CCN1CCN(c2ccc(C(=O)Nc3n[nH]c4cc(-c5cccc(C(=O)OC)c5)ccc34)cc2)CC1 [9h, methyl 3–(3-(4–(4-ethylpiperazin-1-yl)benzamido)-1H-indazol-6-yl)benzoate] |  | 
 | 13.2 nM |  | 223.6 to 226 °C | 1790 nM | CCOc1cccc(-c2ccc3c(NC(=O)c4ccc(N5CCN(CC)CC5)cc4)n[nH]c3c2)c1 [9e, N-(6–(3-ethoxyphenyl)-1H-indazol-3-yl)-4–(4-ethylpiperazin-1-yl)benzamide] |  | 
 | 67.2 nM |  | 226.4 to 228.7 °C | 1200 nM | CCN1CCN(c2ccc(C(=O)Nc3n[nH]c4cc(-c5cc(Cl)cc(Cl)c5)ccc34)cc2)CC1 [9k, N-(6–(3,5-dichlorophenyl)-1H-indazol-3-yl)-4–(4-ethylpiperazin-1-yl)benzamide] |  | 
 | 41.7 nM |  | 235.7 to 239.2 °C | 856 nM | CCN1CCN(c2ccc(C(=O)Nc3n[nH]c4cc(-c5c(C)cccc5C)ccc34)cc2)CC1 [9q, N-(6–(2,6-dimethylphenyl)-1H-indazol-3-yl)-4–(4-ethylpiperazin-1-yl)benzamide] |  | 
786 nM | 15 nM |  |  |  | CCN1CCN(c2ccc(C(=O)Nc3n[nH]c4cc(-c5cccc(OC)c5)ccc34)cc2)CC1 [9d, 4–(4-ethylpiperazin-1-yl)-N-(6–(3-methoxyphenyl)-1H-indazol-3-yl)benzamide] |  | 
> 5000 nM | > 1000 nM |  | 232.5 to 235.2 °C |  | COc1cccc(-c2ccc3nc(NC(=O)c4ccc(N5CCN(C)CC5)cc4)sc3c2)c1F [12d, N-(6–(2-fluoro-3-methoxyphenyl)benzo[d]thiazol-2-yl)-4–(4-methylpiperazin-1-yl)benzamide] |  | 
 | > 1000 nM |  | 227.9 to 232 °C | > 5000 nM | CCN1CCN(c2ccc(C(=O)Nc3n[nH]c4cc(-c5ccc(C(F)(F)F)cc5Cl)ccc34)cc2)CC1 [9p, N-(6–(2-chloro-4-(trifluoromethyl)phenyl)-1H-indazol-3-yl)-4–(4-ethylpiperazin-1-yl)benzamide] |  | 
 | 50.6 nM |  | 231.5 to 234.6 °C | 780 nM | CCN1CCN(c2ccc(C(=O)Nc3n[nH]c4cc(-c5cc(Cl)ccc5Cl)ccc34)cc2)CC1 [9l, N-(6–(2,5-dichlorophenyl)-1H-indazol-3-yl)-4–(4-ethylpiperazin-1-yl)benzamide] |  | 
 | > 1000 nM |  |  | > 5000 nM | CCN1CCN(c2ccc(C(=O)Nc3n[nH]c4cc(-c5cc(C(F)(F)F)cc(C(F)(F)F)c5)ccc34)cc2)CC1 [9j, N-(6–(3,5-bis(trifluoromethyl)phenyl)-1H-indazol-3-yl)-4–(4-ethylpiperazin-1-yl)benzamide] |  | 
 | 44.8 nM |  | 220.1 to 222.4 °C | 1180 nM | CCN1CCN(c2ccc(C(=O)Nc3n[nH]c4cc(-c5cccc(Cl)c5Cl)ccc34)cc2)CC1 [9m, N-(6–(2,3-dichlorophenyl)-1H-indazol-3-yl)-4–(4-ethylpiperazin-1-yl)benzamide] |  | 
> 5000 nM | > 1000 nM |  | 236.4 to 238.3 °C |  | COc1cc(-c2ccc3nc(NC(=O)c4ccc(N5CCN(C)CC5)cc4)sc3c2)cc(OC)c1OC [12c, 4–(4-methylpiperazin-1-yl)-N-(6–(3,4,5-trimethoxyphenyl)benzo[d]thiazol-2-yl)benzamide] |  | 
 | 4.6 nM | 738 nM | 237.7 to 240.3 °C |  | COc1cc(F)cc(-c2ccc3c(NC(=O)c4cnc(N5CCN(C)CC5)cn4)n[nH]c3c2)c1 [9z, N-(6–(3-fluoro-5-methoxyphenyl)-1H-indazol-3-yl)-5–(4-methylpiperazin-1-yl)pyrazine-2-carboxamide] |  | 
 | > 1000 nM |  | 226.4 to 230 °C | > 5000 nM | CCN1CCN(c2ccc(C(=O)Nc3n[nH]c4cc(-c5ccc(C#N)cc5)ccc34)cc2)CC1 [9s, N-(6–(4-cyanophenyl)-1H-indazol-3-yl)-4–(4-ethylpiperazin-1-yl)benzamide] |  | 
 | 13.2 nM | 437 nM | 229.6 to 233.4 °C |  | COc1cc(F)cc(-c2ccc3c(NC(=O)c4ccc(N5C[C@@H](C)N[C@@H](C)C5)cc4)n[nH]c3c2)c1 [9v, 4-((3R,5S)-3,5-dimethylpiperazin-1-yl)-N-(6–(3-fluoro-5-methoxyphenyl)-1H-indazol-3-yl)benzamide] |  | 
 |  |  |  |  | AZD4547 [reference compound] |  | 6.1 nM
 | 10.2 nM | 639 nM | 237.4 to 241.6 °C |  | COc1cc(F)cc(-c2ccc3c(NC(=O)c4ccc(N5CCN(C)CC5)cc4)n[nH]c3c2)c1 [9y, N-(6–(3-fluoro-5-methoxyphenyl)-1H-indazol-3-yl)-4–(4-methylpiperazin-1-yl)benzamide] |  | 
 | 3.3 nM | 557 nM | 230.4 to 234.6 °C |  | COc1cc(F)cc(-c2ccc3c(NC(=O)c4ccc(N5CCCN(C)CC5)cc4)n[nH]c3c2)c1 [9w, N-(6–(3-fluoro-5-methoxyphenyl)-1H-indazol-3-yl)-4–(4-methyl-1,4-diazepan-1-yl)benzamide] |  | 
> 5000 nM | > 1000 nM |  | 234.6 to 238.2 °C |  | COc1cc(OC)cc(-c2ccc3nc(NC(=O)c4ccc(N5CCN(C)CC5)cc4)sc3c2)c1 [12b, N-(6–(3,5-dimethoxyphenyl)benzo[d]thiazol-2-yl)-4–(4-methylpiperazin-1-yl) benzamide] |  | 
 | > 1000 nM |  | 230.9 to 233.5 °C | > 5000 nM | CCN1CCN(c2ccc(C(=O)Nc3n[nH]c4cc(-c5ccccc5OC(F)(F)F)ccc34)cc2)CC1 [9r, 4–(4-ethylpiperazin-1-yl)-N-(6–(2-(trifluoromethoxy)phenyl)-1H-indazol-3-yl)benzamide] |  | 
 | > 1000 nM |  | 227.3 to 231.2 °C | > 5000 nM | CCN1CCN(c2ccc(C(=O)Nc3n[nH]c4cc(-c5ccc(C)c(OC)c5)ccc34)cc2)CC1 [9i, 4–(4-ethylpiperazin-1-yl)-N-(6–(3-methoxy-4-methylphenyl)-1H-indazol-3-yl) benzamide] |  | 
843 nM | 28.2 nM |  | 224.8 to 227.4 °C |  | COc1cccc(-c2ccc3c(NC(=O)c4ccc(N5CCN(C)CC5)cc4)n[nH]c3c2)c1 [9c, N-(6–(3-methoxyphenyl)-1H-indazol-3-yl)-4–(4-methylpiperazin-1-yl)benzamide] |  | 

Molecule | IC50 ([1]; Homo sapiens, Table 1) | IC50 [2] | IC50 ([1]; Homo sapiens, Table 3) | melting point | IC50 ([1]; Homo sapiens, Table 2) | enhancement of the cellular inhibition ([1]; 9o vs 9d, SNU-16) | IC50 ([1]; Table 1)
CCC(C)Oc1cccc(-c2ccc3c(NC(=O)c4ccc(N5CCN(CC)CC5)cc4)n[nH]c3c2)c1 (stereo not drawn) [9g, N-(6–(3-(sec-butoxy)phenyl)-1H-indazol-3-yl)-4–(4-ethylpiperazin-1-yl)benzamide] |  | > 1000 nM |  |  | > 5000 nM |  | 
